Series [1] deals with xanthine oxidase (Homo sapiens, UniProt P47989). The following applies: cited from earlier work.
For series [2], the system named is laboratory animals. The following applies: all laboratory animals tested; cited from earlier work.
The test system of series [3] is patients. The following applies: 4-15 years after completion of chemotherapy; cited from earlier work.
In series [4] the test system is Female CD1 mice.
Protocol: Female CD1 mice, weighing 20-22 g, were obtained from Charles River with implanted jugular catheters. Prior to induction of doxorubicin cardiotoxicity, the animals were randomly divided into 2 groups: • Group 1: Treatment with Oxypurinol (n=15), 26 mg/dl in the drinking water, start 3 days prior to doxorubicin dose and continue to sacrifice. • Group 2: Treatment with Vehicle (Saline) (n=10), start 3 days prior to doxorubicin dose and continue to sacrifice.
For induction of doxorubicin cardiotoxicity, doxorubicin, dissolved in saline, was injected by IV through the jugular catheter twice a week (Monday and Thursday) ten times at dose 4 mg/kg/day. Between doses 4 and 5 there was a two weeks hiatus to allow recovery of bone marrow suppression.
Seventeen mice were included in the vehicle Group 2. Two mice had jugular catheters that were nonoperable and excluded at the outset. Fifteen mice were included in the drug Group 1.
Seven surviving vehicle Group 2 (control) animals were sacrificed and 11 surviving drug Group 1 mice were sacrificed.

Structures can show the parent of a compound that is named as a salt.

Sequence of xanthine oxidase (P47989 whole entry, species assumed): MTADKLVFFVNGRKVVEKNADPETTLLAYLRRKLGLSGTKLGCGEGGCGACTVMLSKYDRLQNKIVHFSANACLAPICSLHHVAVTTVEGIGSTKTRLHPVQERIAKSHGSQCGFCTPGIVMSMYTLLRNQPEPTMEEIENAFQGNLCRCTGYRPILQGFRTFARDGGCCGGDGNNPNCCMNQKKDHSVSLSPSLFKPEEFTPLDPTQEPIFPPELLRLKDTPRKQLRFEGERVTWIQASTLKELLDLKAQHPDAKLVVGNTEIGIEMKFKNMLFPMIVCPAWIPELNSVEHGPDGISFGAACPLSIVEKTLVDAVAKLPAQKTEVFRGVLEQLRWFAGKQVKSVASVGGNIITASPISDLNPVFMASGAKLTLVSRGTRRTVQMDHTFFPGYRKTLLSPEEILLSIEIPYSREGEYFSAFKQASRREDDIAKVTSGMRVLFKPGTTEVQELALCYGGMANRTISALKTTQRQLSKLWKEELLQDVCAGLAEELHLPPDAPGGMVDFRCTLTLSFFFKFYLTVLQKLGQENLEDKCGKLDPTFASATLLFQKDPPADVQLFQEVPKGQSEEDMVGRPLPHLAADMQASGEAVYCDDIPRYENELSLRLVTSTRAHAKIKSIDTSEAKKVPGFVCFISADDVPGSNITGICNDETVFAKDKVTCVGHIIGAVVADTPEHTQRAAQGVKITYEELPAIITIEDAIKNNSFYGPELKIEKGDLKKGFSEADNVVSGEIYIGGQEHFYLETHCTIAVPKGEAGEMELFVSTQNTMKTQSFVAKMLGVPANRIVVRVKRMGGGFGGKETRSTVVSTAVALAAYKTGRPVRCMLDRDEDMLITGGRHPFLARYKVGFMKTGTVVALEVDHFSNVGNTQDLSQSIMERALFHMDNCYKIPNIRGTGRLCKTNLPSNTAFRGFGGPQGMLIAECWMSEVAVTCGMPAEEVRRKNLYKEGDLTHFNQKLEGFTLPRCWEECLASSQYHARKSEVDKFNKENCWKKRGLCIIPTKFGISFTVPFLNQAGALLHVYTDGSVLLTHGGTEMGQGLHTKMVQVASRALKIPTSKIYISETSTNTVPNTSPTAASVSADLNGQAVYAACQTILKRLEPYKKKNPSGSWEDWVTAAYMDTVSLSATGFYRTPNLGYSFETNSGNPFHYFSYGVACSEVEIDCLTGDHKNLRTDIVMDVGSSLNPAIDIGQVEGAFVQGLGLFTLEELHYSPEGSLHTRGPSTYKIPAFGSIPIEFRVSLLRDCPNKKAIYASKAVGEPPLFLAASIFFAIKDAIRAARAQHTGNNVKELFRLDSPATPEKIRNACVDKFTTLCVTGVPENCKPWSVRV

As for `Oc1ncnc2[nH]ncc12` [allopurinol, 1,5-dihydro4H-pyrazolol[3,4-d}pyrimidin-4-one monosodium salt, reference compound], the “immediate inhibition of superoxide radical production” value in series [1] is given as “very little immediate inhibition”.

For `C[C@@H](CN1CC(=O)NC(=O)C1)N1CC(=O)NC(=O)C1` [dexrazoxane], in series [2], the “chronic cardiotoxicity in laboratory animals” value is given as “prevents chronic cardiotoxicity”.

Take `COc1cccc2c1C(=O)c1c(O)c3c(c(O)c1C2=O)C[C@@](O)(C(=O)CO)C[C@@H]3O[C@H]1C[C@H](N)[C@H](O)[C@H](C)O1` [doxorubicin, 14-hydroxydaunomycin]: the “late onset chronic cardiac events, share of patients” value in series [3] was 18-65%.

Regarding `O=c1[nH]c(=O)c2c[nH]nc2[nH]1` [oxypurinol], the “cellular necrosis score, difference vs vehicle” value in series [4] (histology of surviving mice sacrificed prior to dose 4 of doxorubicin) is listed as “not statistically significant”. In addition, the “mean cellular swelling score” value in series [4] (histology of surviving mice sacrificed prior to dose 4 of doxorubicin, 11 mice, p=0.004 vs vehicle) is 1.8±0.4. Moreover, the “deaths following 3 doses of doxorubicin” value in series [4] (oxypurinol 26 mg/dl in drinking water from 3 days before doxorubicin, doxorubicin 4 mg/kg/day IV twice a week, 15 mice in group) came to 3 deaths. The “mortality vs vehicle group” value in series [4] (oxypurinol Group 1 vs vehicle Group 2, doxorubicin-treated mice) is “highly significant decrease in mortality”. The “immediate inhibition of superoxide radical production” value in series [1] is reported as “produces immediate inhibition”.

The values are drawn from patent US20080039408A1, “Use of Oxypurinol as an Inhibitor of Anti-Neoplastic Agent-Induced Cardiotoxicity” (priority 2004, published 2008).
